What all share (type): cell-based
Test [1] concerns the target T1, 20S proteasome β1 subunit (caspase-like activity) (Rattus norvegicus, UniProt P28073).
T1 construct: gene Psmb6; with other subunits of the 20S/26S proteasome
T1 sequence (P28073 34-238): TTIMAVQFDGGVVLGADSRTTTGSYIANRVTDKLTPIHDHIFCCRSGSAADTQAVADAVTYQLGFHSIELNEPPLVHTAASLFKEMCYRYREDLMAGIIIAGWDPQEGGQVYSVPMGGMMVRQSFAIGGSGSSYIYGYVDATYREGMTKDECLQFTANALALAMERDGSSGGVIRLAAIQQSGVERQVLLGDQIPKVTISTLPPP
As to the kind of experiment: caspase-like activity (Z-LLE-MCA cleavage) in lysates of INS-1E cells treated with […] MG-132. As to conditions: read-out: % inhibition at 150 nM.

Test [2] concerns the target T2, 20S proteasome β5 subunit (chymotrypsin-like activity) (Rattus norvegicus, UniProt P28075).
T2 construct: gene Psmb5; with other subunits of the 20S/26S proteasome
T2 sequence (P28075 60-263): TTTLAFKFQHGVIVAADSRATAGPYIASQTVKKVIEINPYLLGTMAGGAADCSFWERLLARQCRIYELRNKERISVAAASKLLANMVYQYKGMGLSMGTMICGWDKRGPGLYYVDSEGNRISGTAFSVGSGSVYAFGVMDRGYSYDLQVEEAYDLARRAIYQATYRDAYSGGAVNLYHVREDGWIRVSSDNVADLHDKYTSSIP
Kind of test: chymotrypsin-like activity (Suc-LLVY-MCA cleavage) in lysates of MG-132-treated INS-1E cells, dose-response.

Test [3] concerns the target T3, 20S proteasome β2 subunit (trypsin-like activity) (Rattus norvegicus, UniProt Q9JHW0).
T3 construct: gene Psmb7; with other subunits of the 20S/26S proteasome
T3 sequence (Q9JHW0 44-277): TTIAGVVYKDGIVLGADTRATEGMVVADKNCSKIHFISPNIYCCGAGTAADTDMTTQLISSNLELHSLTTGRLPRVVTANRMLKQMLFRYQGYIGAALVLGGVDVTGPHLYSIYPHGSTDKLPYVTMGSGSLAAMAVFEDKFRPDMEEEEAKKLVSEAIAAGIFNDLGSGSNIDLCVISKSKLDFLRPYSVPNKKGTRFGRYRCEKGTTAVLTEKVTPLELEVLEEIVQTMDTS
As to the kind of experiment: trypsin-like activity (Z-ARR-MCA cleavage) in lysates of INS-1E cells treated with […] MG-132. The settings on record: read-out: % inhibition at 150 nM.

Structures are written as SMILES. Residues, ends and D or L forms follow the SMILES beside them. *: point of attachment. Cbz = O=C(OCc1ccccc1)*

For `CC(C)C[C@@H](C=O)NC(=O)[C@H](CC(C)C)NC(=O)[C@H](CC(C)C)NC(=O)OCc1ccccc1` [MG-132] (Cbz-Leu-Leu-Leu-aldehyde), the inhibition at 0.15 µM in test [1] came out at 80%; in test [3] it was 50%. This compound also had a Ki in test [2] of 50 nM.
